According to the NIST ThermoML archive (doi:10.1021/acs.jced.9b00449):
Numbers after ± are expanded uncertainties.

Assay: mn = molality of the nth substance listed, in mol/kg
Settings: 100 kPa, Liquid; for kinematic viscosity: Capillary tube (Ostwald / Ubbelohde) method; for mass density: Pycnometric method

[K+].[O]=[V](=[O])[O-] [potassium vanadate] + O
Settings	kinematic viscosity [m2/s]	mass density [kg/m3]
293.15 K, m1 = 0.615	1.03e-06 ± 1.2e-08	1063 ± 11
303.15 K, m1 = 0.874	8.5e-07 ± 4e-08	1083 ± 16
313.15 K, m1 = 1.223	7.51e-07 ± 2e-08	1126 ± 11
323.15 K, m1 = 1.884	7.42e-07 ± 3.6e-08	1171 ± 12
